{"source": "patent US20250295656A1", "about": "“COMBINATION OF LURBINECTEDIN AND IMMUNE CHECKPOINT INHIBITORS” (priority 2020, published 2025)", "key": {"[1]": {"system": "mRNA transcription in U2OS cells", "assay": "Transcription level by nucleolin/fibrillarin colocalization", "format": "cell-based, human", "conditions": "10, 50 or 100 nM, actinomycin D as control", "method": "Human osteosarcoma U2OS cells were treated with 10, 50 or 100 nM lurbinectedin (Lurbi) for 6 hours. Thapsigargin (Thaps, 3 μM) was used as a positive control. The cells were fixed with 3.7% PFA and DNA was stained with 1 μM Hoechst 33342. Following the phosphorylation of the eukaryotic translation initiation factor 2 alpha (eIF2a) was assessed with phosphoneoepitope-specific antibody and was monitored by means of automated microscopy as an increase in cytoplasmic fluorescence intensity. (a,b) The level of transcription was measured in U2OS cell treated as above with Lurbi. The transcription inhibitor actinomycin D (ActD) was used as a control. The cells were fixed as above and following the colocalization of nucleolin and fibrillarin was assessed as an indicator for transcriptional activity (c,d) Scale bar equals 10 μm and bar charts depict mean values±SD of quadruplicate assessments (*p<0.01; *p<0.001, two-tailed Student's t test).\nIn a systematic screening campaign, the capacity of lurbinectedin to induce immunogenic cell death in cancer cells was assessed in human osteosarcoma U2OS cells stably expressing fluorescent biosensors for the detection of CALR-relocation (as a surrogate marker for CALR surface exposure), HMGB1 release and Type I IFN responses together with U2OS WT cells stained with the ATP-sensitive dye quinacrine. […]"}, "MCA205 fibrosarcoma": {"system": "MCA205 fibrosarcoma", "assay": "Anticancer vaccination with lurbinectedin-treated dying MCA205 cells and rechallenge", "format": "in vivo, immunocompetent C57BL/6 mice", "conditions": "MCA205 cells treated with 1 μM lurbinectedin injected s.c., rechallenge with live cells one week later", "method": "MCA205 cells treated for 20 h with 1 μM lurbinectedin were inoculated subcutaneously (s.c.) into immunocompetent C57BL/6 mice, which were rechallenged 7 days later s.c. with living cells of the same type. The tumour growth was measured until endpoints were reached and overall survival was evaluated regularly for the following 30 days (n=6). (*p<. 01, two-tailed Student's t test, compared to all other groups). Data were analyzed with TumGrowth.\nIn order to assess the capacity of lurbinectedin to stimulate anticancer immunity in a monotherapeutic approach and to convert tumour cells into a therapeutic vaccine we exposed murine fibrosarcoma cells to the drug in vitro (in conditions previously established to induce a sufficient amplitude of cell death) and then injected the dying cancer cells into syngeneic immunocompetent mice. […] Next we evaluated the effect of lurbinectedin on established cancers growing on immunocompetent or immunodeficient mice. […]\nSix- to eight-week-old female wild-type C57BL/6 and nu/nu mice were obtained from Envigo France (Huntingdon, UK) and were kept in the animal facility at the Gustave Roussy Campus Cancer in a specific pathogen-free and temperature-controlled environment with 12 h day, 12 h night cycles and received food and water ad libitum. […] Animals were monitored and tumour growth documented regularly until end-points were reached. […]"}}, "data": [{"smiles": "COc1ccc2[nH]c3c(c2c1)CCN[C@]31CS[C@@H]2c3c(OC(C)=O)c(C)c4c(c3[C@H](COC1=O)N1[C@@H]2[C@H]2c3c(cc(C)c(OC)c3O)C[C@@H]([C@@H]1O)N2C)OCO4", "note": "[lurbinectedin]", "values": [{"measurement": "mRNA transcription (dissociation of nucleolin and fibrillarin)", "setting": "[1]", "result": "inhibited mRNA transcription at a level comparable to a known transcription-inhibitor"}, {"measurement": "overall survival after rechallenge", "setting": "MCA205 fibrosarcoma", "result": "increase"}, {"measurement": "tumour growth after rechallenge", "setting": "MCA205 fibrosarcoma; p=0.0094", "result": "significantly reduced"}]}]}
